Measured values published in US8304206B2, “Mass spectrometry assays for identifying compounds that activate deacetylases” (Sirtris Pharmaceuticals, Inc., priority 2005, dated 2012).

Target: T1, SIRT1 (Homo sapiens, UniProt Q96EB6)
T1 sequence (Q96EB6 1-747): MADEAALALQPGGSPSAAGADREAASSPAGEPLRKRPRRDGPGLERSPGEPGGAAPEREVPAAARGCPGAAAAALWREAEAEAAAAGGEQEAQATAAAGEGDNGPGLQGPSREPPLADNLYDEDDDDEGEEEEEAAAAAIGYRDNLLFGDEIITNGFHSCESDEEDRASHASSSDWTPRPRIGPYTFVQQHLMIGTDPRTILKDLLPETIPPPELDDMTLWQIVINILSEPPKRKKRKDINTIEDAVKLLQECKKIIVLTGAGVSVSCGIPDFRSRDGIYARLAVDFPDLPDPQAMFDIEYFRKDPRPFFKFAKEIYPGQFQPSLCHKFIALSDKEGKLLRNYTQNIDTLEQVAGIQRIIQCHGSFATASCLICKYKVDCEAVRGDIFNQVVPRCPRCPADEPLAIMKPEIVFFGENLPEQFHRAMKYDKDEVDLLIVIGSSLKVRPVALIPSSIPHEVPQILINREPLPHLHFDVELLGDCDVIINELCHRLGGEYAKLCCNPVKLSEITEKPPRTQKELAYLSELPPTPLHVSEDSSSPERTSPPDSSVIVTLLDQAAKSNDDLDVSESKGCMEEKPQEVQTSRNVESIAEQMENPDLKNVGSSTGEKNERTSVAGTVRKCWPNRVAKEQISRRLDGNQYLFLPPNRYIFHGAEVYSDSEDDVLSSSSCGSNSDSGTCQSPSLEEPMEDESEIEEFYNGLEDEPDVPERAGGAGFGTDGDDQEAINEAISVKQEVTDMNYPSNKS
Test: SIRT1 mass spectrometry assay (screening for activation)
Assay type: biochemical
Conditions: for FOLD ACTIVATION MS: activation of SIRT1, mass spectrometry; for EC50: activation of SIRT1, 0.5 μM peptide substrate (SEQ ID NO: 34), 120 μM NAD+, 10 nM SIRT1, 25 min, read-out: ED50 MS ASSAY

For `CN(C)c1cccc(C(=O)Nc2cc(CN3CCNCC3)cc(-c3nc4ncccc4o3)c2)c1` [compound 160], the “FOLD ACTIVATION MS” value was “A (Fold activation>250%)”.

For `COc1ccc(C(=O)Nc2cccc(-c3nc4ncccc4o3)n2)c(OC)c1` [compound 69], the “FOLD ACTIVATION MS” value was “B (Fold Activation<250%)”.

`O=C(Nc1cccc(-c2nc3ccncc3s2)c1)c1cccs1` [compound 223] was tested, and the “FOLD ACTIVATION MS” value was “B (Fold Activation<250%)” and the EC50 was under 50 µM.

In the case of `COc1ccc(C(=O)Nc2cccc(-c3nc4cnccc4s3)c2)c(OC)c1` [compound 272], the “FOLD ACTIVATION MS” value is reported as “B (Fold Activation<250%)” and the EC50 is reported as under 50 µM.

`COc1ccc(C(=O)Nc2sccc2-c2nc3ccccc3s2)cc1OC` [compound 145] was tested, and the “FOLD ACTIVATION MS” value was “B (Fold Activation<250%)” and the EC50 was under 50 µM.

With `CN(C)Cc1cc(NC(=O)c2cccc(N(C)C)c2)cc(-c2nc3ncccc3o2)c1` [compound 157] the “FOLD ACTIVATION MS” value was “B (Fold Activation<250%)”.

With `COc1cc(C(=O)Nc2ccccc2-c2cn3ccsc3n2)cc(OC)c1OC` [compound 204] the “FOLD ACTIVATION MS” value was “A (Fold activation>250%)” and the EC50 was under 50 µM.

With `COc1cc(C(=O)Nc2ccccc2-c2cn3c(CN4CCOCC4)csc3n2)cc(OC)c1OC` [compound 210] the “FOLD ACTIVATION MS” value was “B (Fold Activation<250%)”.

`O=C(Nc1ccc2c(c1)OCO2)Nc1cccc(-c2nc3ncccc3o2)n1` [compound 71] was tested, and the “FOLD ACTIVATION MS” value was “B (Fold Activation<250%)”.

`O=C(Nc1cccc(-c2nc3ccncc3s2)c1)c1cccnc1Cl` [compound 222] was tested, and the “FOLD ACTIVATION MS” value was “B (Fold Activation<250%)”.

With `COc1cc(C)ccc1C(=O)Nc1ccc(-c2cc3cccnc3o2)cc1` [compound 187] the “FOLD ACTIVATION MS” value was “B (Fold Activation<250%)”.

`CN(C)c1ccc(C(=O)Nc2cccc(-c3nc4ncccc4o3)n2)cc1` [compound 70] was tested, and the “FOLD ACTIVATION MS” value was “B (Fold Activation<250%)”.

`COc1cccc(C(=O)Nc2cccc(-c3nc4cccnc4s3)c2)c1` [compound 212] was tested, and the “FOLD ACTIVATION MS” value was “B (Fold Activation<250%)”.

With `COc1ccc(C(=O)Nc2ccccc2-c2nc3ccncc3s2)cc1OC` [compound 162] the “FOLD ACTIVATION MS” value was “B (Fold Activation<250%)” and the EC50 was under 50 µM.

In the case of `COc1ccc(C(=O)Nc2ccccc2-n2cccc2)cc1OC` [compound 175], the “FOLD ACTIVATION MS” value is reported as “B (Fold Activation<250%)”.

`CC(=O)Nc1ccc(S(=O)(=O)Nc2cccc(-c3nc4ccncc4s3)c2)cc1` [compound 288] was tested, and the “FOLD ACTIVATION MS” value was “B (Fold Activation<250%)”.

In the case of `Cc1cc(C(=O)Nc2cccc(-c3nc4ccncc4s3)c2)n(C(C)(C)C)n1` [compound 228], the “FOLD ACTIVATION MS” value is reported as “A (Fold activation>250%)”.

In the case of `COc1cc(C(=O)Nc2ccccc2-c2cn3cc(CN4CCNCC4)sc3n2)cc(OC)c1OC` [compound 271], the “FOLD ACTIVATION MS” value is reported as “A (Fold activation>250%)” and the EC50 is reported as under 50 µM.

`COc1ccc(S(=O)(=O)Nc2cccc(-c3nc4ccncc4s3)c2)cc1OC` [compound 289] was tested, and the “FOLD ACTIVATION MS” value was “B (Fold Activation<250%)”.

In the case of `COc1cc(C(=O)Nc2ccccc2-c2nc3ccncc3s2)cc(OC)c1OC` [compound 163], the “FOLD ACTIVATION MS” value is reported as “B (Fold Activation<250%)” and the EC50 is reported as under 50 µM.

With `COc1cc(C(=O)Nc2cccc(-c3nc4cccnc4s3)c2)cc(OC)c1OC` [compound 217] the “FOLD ACTIVATION MS” value was “A (Fold activation>250%)” and the EC50 was under 50 µM.

In the case of `COc1cc(C(=O)Nc2ccccc2-c2cn3c(CN(C)C)csc3n2)cc(OC)c1OC` [compound 206], the “FOLD ACTIVATION MS” value is reported as “A (Fold activation>250%)”.

With `COc1ccc(C(=O)Nc2cccc(-c3csc(-c4ccccc4)n3)c2)cc1OC` [compound 84] the “FOLD ACTIVATION MS” value was “B (Fold Activation<250%)”.

In the case of `O=C(Nc1cccc(-c2nc3ccncc3s2)c1)c1ccccc1Oc1ccccc1` [compound 245], the “FOLD ACTIVATION MS” value is reported as “B (Fold Activation<250%)” and the EC50 is reported as under 50 µM.

For `CN(C)c1cccc(C(=O)Nc2ccc(-c3nc4ncccc4s3)cc2)c1` [compound 196], the “FOLD ACTIVATION MS” value was “B (Fold Activation<250%)”.

With `COc1ccc(C(=O)Nc2cccc(-c3nc4ncccc4s3)c2)c(OC)c1` [compound 202] the “FOLD ACTIVATION MS” value was “B (Fold Activation<250%)” and the EC50 was under 50 µM.

For `COc1cc(OC)cc(C(=O)Nc2ccccc2-c2nc3ccccc3[nH]2)c1` [compound 141], the “FOLD ACTIVATION MS” value was “B (Fold Activation<250%)” and the EC50 was under 50 µM.

For `COc1ccc(C(=O)Nc2cccc(-c3cc4cccnc4o3)c2)cc1OC` [compound 192], the “FOLD ACTIVATION MS” value was “B (Fold Activation<250%)”.

In the case of `COc1ccc(C(=O)Nc2cccc(-c3nc4cccnc4s3)c2)c(OC)c1` [compound 213], the “FOLD ACTIVATION MS” value is reported as “B (Fold Activation<250%)” and the EC50 is reported as under 50 µM.

In the case of `CN(C)c1cccc(C(=O)Nc2ccc(-c3nc4cccnc4[nH]3)cc2)c1` [compound 180], the “FOLD ACTIVATION MS” value is reported as “B (Fold Activation<250%)”.

`COc1ccc(C(=O)Nc2cc(-c3nc4ccccc4o3)ccn2)cc1OC` [compound 77] was tested, and the “FOLD ACTIVATION MS” value was “B (Fold Activation<250%)”.

For `COC(=O)c1ccc(-n2cncn2)c(NC(=O)c2ccc(OC)c(OC)c2)c1` [compound 258], the “FOLD ACTIVATION MS” value was “B (Fold Activation<250%)”.

In the case of `COc1ccc(C(=O)Nc2cccc(-c3csc(C)n3)c2)c(OC)c1` [compound 81], the “FOLD ACTIVATION MS” value is reported as “B (Fold Activation<250%)”.

For `COc1ccc(C(=O)Nc2ccccc2-c2cn3ccccc3n2)c(OC)c1` [compound 265], the “FOLD ACTIVATION MS” value was “B (Fold Activation<250%)”.

With `COc1cc(C(=O)Nc2cccc(-c3cn4cccnc4n3)c2)cc(OC)c1OC` [compound 218] the “FOLD ACTIVATION MS” value was “A (Fold activation>250%)” and the EC50 was under 50 µM.

`COc1cc(C(=O)Nc2cccc(-c3nc4cnccc4s3)c2)cc(OC)c1OC` [compound 273] was tested, and the “FOLD ACTIVATION MS” value was “A (Fold activation>250%)”.

For `COc1ccc(C(=O)Nc2cccc(-c3nc4ccccc4[nH]3)n2)cc1OC` [compound 260], the “FOLD ACTIVATION MS” value was “A (Fold activation>250%)” and the EC50 was under 50 µM.

With `COc1cc(C)ccc1C(=O)Nc1cccc(-c2nc3cccnc3[nH]2)c1` [compound 182] the “FOLD ACTIVATION MS” value was “A (Fold activation>250%)” and the EC50 was under 50 µM.

For `c1cc(Nc2nc3ccccc3s2)cc(-c2nc3ncccc3o2)c1` [compound 95], the “FOLD ACTIVATION MS” value was “B (Fold Activation<250%)” and the EC50 was under 50 µM.

With `COc1cccc(C(=O)Nc2cccc(-c3nc4ccccc4[nH]3)n2)c1` [compound 261] the “FOLD ACTIVATION MS” value was “A (Fold activation>250%)” and the EC50 was under 50 µM.

`CN(C)Cc1ccc2oc(-c3cccc(NC(=O)c4cccc(N(C)C)c4)c3)nc2n1` [compound 165] was tested, and the “FOLD ACTIVATION MS” value was “A (Fold activation>250%)”.

For `COc1ccc(C(=O)Nc2cc(C(=O)NCCN(C)C)cc(-c3nc4ncccc4o3)c2)c(OC)c1` [compound 155], the “FOLD ACTIVATION MS” value was “B (Fold Activation<250%)”.

With `COc1cc(C(=O)Nc2ccccc2-c2nc3ncccc3o2)cc(OC)c1OC` [compound 106] the “FOLD ACTIVATION MS” value was “B (Fold Activation<250%)” and the EC50 was under 50 µM.

For `COc1ccc(C(=O)Nc2ccccc2-c2cn3c(CN4CCNCC4)csc3n2)cc1OC` [compound 207], the “FOLD ACTIVATION MS” value was “A (Fold activation>250%)”.

For `COc1ccc(C(=O)Nc2ccccc2-c2nc3ccccc3[nH]2)cc1OC` [compound 142], the “FOLD ACTIVATION MS” value was “A (Fold activation>250%)” and the EC50 was under 50 µM.

For `COc1ccc(C(=O)Nc2cc(CN(C)C)cc(-c3nc4ncccc4o3)c2)cc1OC` [compound 156], the “FOLD ACTIVATION MS” value was “B (Fold Activation<250%)”.

For `CN(C)c1cccc(C(=O)Nc2cccc(-c3nc4ncccc4[nH]3)c2)c1` [compound 183], the “FOLD ACTIVATION MS” value was “A (Fold activation>250%)”.

In the case of `Cn1nc(C(C)(C)C)cc1C(=O)Nc1cccc(-c2nc3ccncc3s2)c1` [compound 246], the “FOLD ACTIVATION MS” value is reported as “B (Fold Activation<250%)” and the EC50 is reported as under 50 µM.

For `COc1ccc(C(=O)Nc2ccccc2-c2cn3cc(CN(C)C)sc3n2)cc1OC` [compound 178], the “FOLD ACTIVATION MS” value was “A (Fold activation>250%)”.

In the case of `COc1ccc(C(=O)Nc2cccc(-c3nc4cccnc4[nH]3)c2)cc1OC` [compound 185], the “FOLD ACTIVATION MS” value is reported as “A (Fold activation>250%)” and the EC50 is reported as under 50 µM.

`c1cc(Nc2nc3ccccc3o2)nc(-c2nc3ncccc3o2)c1` [compound 105] was tested, and the “FOLD ACTIVATION MS” value was “B (Fold Activation<250%)” and the EC50 was under 50 µM.

In the case of `COc1ccc(C(=O)Nc2cc(C(=O)NCCN(C)C)cc(-c3nc4ncccc4o3)c2)cc1OC` [compound 153], the “FOLD ACTIVATION MS” value is reported as “B (Fold Activation<250%)”.

For `COc1ccc(C(=O)Nc2cccc(-c3nc4ncccc4[nH]3)c2)c(OC)c1` [compound 184], the “FOLD ACTIVATION MS” value was “B (Fold Activation<250%)” and the EC50 was under 50 µM.

With `COc1cc(C)ccc1C(=O)Nc1ccc(-c2nc3cccnc3[nH]2)cc1` [compound 149] the “FOLD ACTIVATION MS” value was “B (Fold Activation<250%)” and the EC50 was under 50 µM.

For `COc1ccc(C(=O)Nc2ccccc2-c2cn3c(CN4CCOCC4)csc3n2)cc1OC` [compound 209], the “FOLD ACTIVATION MS” value was “A (Fold activation>250%)”.

With `CN(C)c1cccc(C(=O)Nc2ccc(-c3cc4ccccc4[nH]3)cc2)c1` [compound 264] the “FOLD ACTIVATION MS” value was “B (Fold Activation<250%)” and the EC50 was under 50 µM.
